Measurements published in patent US9566290B2, “Boron-containing small molecules” (Anacor Pharmaceuticals, Inc., priority 2005, dated 2017).
Converted amounts (≈) assume the structure as drawn. “Also recorded” adds a separate entry of the source.

Experiments:
T. rubrum [1] = test: MIC in the presence of 5% keratin powder; format: cell-based, Trichophyton rubrum
Description: Many antifungal agents strongly bind to keratin which not only reduces their antifungal potency but also may restrict their penetration into the nail. The affinities of the compounds for keratin powder was determined by a method described in Tatsumi, Antimicrobial Agents and Chemotherapy, 46(12):3797-3801 (2002).
(§1) (C10) is a novel compound in development for use as a topical antifungal treatment. The purpose of this study was to determine the minimum inhibitory concentration (MIC) for (C10) against 19 test strains of fungi including: Aspergillus fumigatus (A. fumigatus), Candida Albicans (C. albicans, both fluconazole sensitive and resistant strains), Candida glabrata (C. glabrata), Candida krusei (C. krusei), Cryptococcus neoformans (C. neoformans), Candida parapsilosis (C. parapsilosis), Candida tropicalis (C. tropicalis), Epidermophyton floccosum (E. floccosum), Fusarium solani (F. solani), Malassezia furfur (M. furfur), Malassezia pachydermatis (M. pachydermatis), Malassezia sympodialis (M. sympodialis), Microsporum audouinii (M. audouinii), Microsporum canis (M. canis), Microsporum gypseum (M. gypseum), Trichophyton mentagrophytes (T. mentagrophytes), Trichophyton rubrum (T. rubrum), Trichophyton tonsurans (T. tonsurans). Fungal growth was evaluated after exposure to different concentrations of (C10). […]

[2] = tested on: S. cerevisiae ATCC201388 bearing pRS425 or CDC60 on pRS425; test: MIC with over-expression of wild type CDC60; format: cell-based, Saccharomyces cerevisiae; conditions: for MIC: Saccharomyces cerevisiae
Source text: The minimal inhibitory concentration (MIC) was essentially performed following the NCCLS guidelines outlined in the M27 protocol with the exception of using YPD or synthetic defined media (SDM).
A 4.0 kb BamH I-Sal I DNA fragment containing the entire CDC60 open reading frame (ORF) and 700 bp of upstream sequence was amplified using KOD DNA polymerase, S. cerevisiae genomic DNA (Novagen, Madison, Wis., USA), and the primers GAGGGATCCGGTTAGTTTTAGTTCGCGAGTGACCTG and GAGGTCGACGATTTCTGGTTGCTGTTTATTGATCTT (Operon, Alameda, Calif., USA). This DNA fragment was then cloned into the […] multi-copy plasmid pRS425, and transformed into S. cerevisiae ATCC201388 (Gietz, R D et al., Methods in Enzymology 305: 87-96 (2002)).

T. mentagrophytes = test: Minimum fungicidal concentration (MFC); format: cell-based; conditions: Trichophyton mentagrophytes, lowest concentration that killed over 90%
Source text: as §1, with “(C10). In addition, the MIC for (C10) against T. rubrum in the presence of 5% keratin powder and the minimum fungicidal concentration (MFC) for (C10) against T. rubrum and T. mentagrophytes were also determined. Ciclopirox and/or terbinafine and/or fluconazole and/or itraconazole were used as comparators and tested in a similar manner. These studies were conducted at NAEJA Pharmaceutical, Inc.” for “(C10).”

T. rubrum [3] = test: Minimum fungicidal concentration (MFC); format: cell-based; conditions: Trichophyton rubrum, lowest concentration that killed over 90%
Source text: as §1, with “(C10). In addition, the MIC for (C10) against T. rubrum in the presence of 5% keratin powder and the minimum fungicidal concentration (MFC) for (C10) against T. rubrum and T. mentagrophytes were also determined. Ciclopirox and/or terbinafine and/or fluconazole and/or itraconazole were used as comparators and tested in a similar manner. These studies were conducted at NAEJA Pharmaceutical, Inc.” for “(C10).”

19 test strains of fungi = test: Antifungal MIC, microbroth dilution (NCCLS); format: cell-based; conditions: MIC = over 90% reduction of growth, read-out: MIC values against all fungi tested
Source text: as §1, with “(C10). In addition, the MIC for (C10) against T. rubrum in the presence of 5% keratin powder and the minimum fungicidal concentration (MFC) for (C10) against T. rubrum and T. mentagrophytes were also determined. Ciclopirox and/or terbinafine and/or fluconazole and/or itraconazole were used as comparators and tested in a similar manner. These studies were conducted at NAEJA Pharmaceutical, Inc.” for “(C10).”

SMILES: OB1OCc2cc(F)ccc21 [C10, 5-fluorobenzo[c][1,2]oxaborol-1(3H)-ol]
- effect of addition of 5% keratin powder to the media on MIC (T. rubrum [1]): did not effect the MIC
- increase in resistance (MIC) with additional copies of CDC60 ([2]; CDC60 on multi-copy 2 μM plasmid versus same strain bearing pRS425): eight times more resistant; also recorded: eight times higher; also recorded: eight-fold
- MIC ([2]; ATCC201388, CDC60 on pRS425 (20 copies)): 1 µg/mL (≈ 6.58 µM)
- MIC ([2]; ATCC201388, pRS425 Plasmid control): 0.125 µg/mL (≈ 0.823 µM)
- MFC (T. mentagrophytes): 16 µg/mL (≈ 105 µM)
- MFC (T. rubrum [3]): 8 µg/mL (≈ 52.7 µM)
- MIC (19 test strains of fungi): 0.25 to 2 µg/mL (≈ 1.65 to 13.2 µM)
